Test system: 171881-019-R-J1-PDC multicell spheroid viability
Test: Anticancer human tumor 171881-019-R-J1-PDC patient-derived invasive breast carcinoma cell line growth inhibition [IpAb]
Conditions: for viability, T/C: stronger effect = lower value
From the text: Combinatorial screen of targeted agents with ipatasertib and abemaciclib in multi-cell type tumor spheroids
A high-throughput screen of multi-cell type tumor spheroids was designed to identify active combinations of targeted small molecules and ipatasertib or abemaciclib. Complex spheroids include a stromal component modeled by human endothelial cells (HUVEC) and fibroblasts modeled by human mesenchymal stem cells (MSCs). The concentration ranges selected for each drug and investigational agent were based upon clinically achievable concentrations if the clinical Cmax of the agent was known.
Compounds. The drugs and investigational agents: ipatasertib (NSC767898), abemaciclib(NSC768073), selumetinib (NSC741078), trametinib (758246), adavosertib (NSC754352), everolimus (NSC733504), sapanisertib (NSC764658), vemurafenib (NSC761431), venetoclax (NSC766270), copanlisib (NSC809693), apelisib (NSC765974), palbociblib (NSC758247), vemurafenib (NSC761431), dabrafenib (NSC764134), ravoxertinib (NSC781343), BMS-387032 (NSC767048), sotorasib (NSC818433), talazoparib (NSC767125) and afursertib (NSC778305), were obtained from the National Cancer Institute (NCI) Developmental Therapeutics Program Chemical Repository. The FDA-approved anticancer drug set is available from the NCI Developmental Therapeutics Program. […] The stock solutions were prepared in dimethyl sulfoxide (DMSO, Sigma-Aldrich, St. Louis, MO, cat. D2650) at 800-fold the tested concentration and stored at -70 degrees C prior to their use. All drugs and investigational agents were tested over a range starting from a high concentration at or near the clinical Cmax and decreasing in half-log increments. If the clinical Cmax for an agent had not been determined, the highest concentration tested was 10 microM.
NCI60 Cell Culture. NCI60 cell lines were obtained from the NCI Developmental Therapeutics Program Tumor Repository. For each lot of cells, the Repository performed Applied Biosystems AmpFLSTR Identifiler testing with PCR amplification to confirm consistency with the published Identifier STR profile for each cell line. Cells were kept in continuous culture for no more than 20 passages. The optimal seeding densities for each of the cell lines at each time point assessed were determined prior to performing the concentration response studies. Briefly, the NCI60 human tumor lines were grown as monolayers in RPMI 1640 medium supplemented with 10% FBS and 2 mmol/L L-glutamine.
An additional 9 lines were from the NCI60 cell line panel including MDA-MB-231 breast carcinoma, MDA-MB-468 breast carcinoma, MCF7 breast carcinoma, Hs578T breast carcinoma, MALME-3M melanoma, SK-MEL-2 melanoma, SK-OV-3 ovarian carcinoma, DU-145 prostate carcinoma, PC-3 prostate carcinoma, all cell lines along with major genetic alterations are listed on Table 2. Pooled donor human umbilical vein endothelial cells (HUVEC, Lonza, cat. CC-2519) and human mesenchymal stem cells (hMSC, Lonza, cat. PT-2501) were purchased from Lonza (Walkersville, MD).
PDMR cell lines were grown in complete medium (DC medium): Dulbecco's modified Eagle's medium (DMEM)/F12 supplemented with 5% fetal bovine serum (FBS), 2 mM L-glutamine, 100 U/mL penicillin and 100 µg/ml streptomycin, 0.4 µg/ml hydrocortisone, 10 ng/ml epidermal growth factor (EGF) recombinant human protein, 24 µg/mL adenine, and 0.1 mg/mL primocin. During culture from frozen stock vials, PDMR cells were cultured in the same medium containing 10 µM Y-27632 (see Table 3). The PDCs were cultured in complete DMEM/F12 media without 10 microM Y-27632 dihydrochloride for at least two passages prior to the screen. The pooled donor HUVEC and hMSC were cultured in endothelial cell growth medium 2 (PromoCell, Heidelberg, Germany, cat. C-22011) and mesenchymal stem cell growth medium 2 (PromoCell, cat. C-28009), respectively. For all experiments, HUVEC and hMSC were used at passages </=5.
[…]

[1] = curve of first compound, second compound 0.1 µM
[2] = curve of first compound, second compound 0.316 µM
[3] = curve of first compound, second compound 1 µM
[4] = curve of first compound, second compound 3.16 µM
[5] = curve of first compound, second compound 10 µM
[6] = second compound 0.1 µM, first compound 0.0316 µM
[7] = second compound 0.1 µM, first compound 0.1 µM
[8] = second compound 0.316 µM, first compound 0.0316 µM
[9] = second compound 0.316 µM, first compound 0.1 µM
[10] = second compound 1 µM, first compound 0.0316 µM
[11] = second compound 1 µM, first compound 0.1 µM
[12] = second compound 3.16 µM, first compound 0.0316 µM
[13] = second compound 3.16 µM, first compound 0.1 µM
[14] = second compound 10 µM, first compound 0.0316 µM
[15] = second compound 10 µM, first compound 0.1 µM
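Also: spheroids exposed to the agents for seven days before readout.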

CC(C)NCC(C(=O)N1CCN(c2ncnc3c2C(C)CC3O)CC1)c1ccc(Cl)cc1 (centres undefined)
viability, T/C (compound 1 µM): 27.9% [middle of 13 runs] | viability, T/C (compound 3.16 µM): 11.2% [middle of 13 runs] | viability, T/C (compound 10 µM): 6.7% [middle of 12 runs] | IC50 (compound alone, run of 05/18/2021): 618 nM [middle of 13 runs]

C=CCn1c(=O)c2cnc(Nc3ccc(N4CCN(C)CC4)cc3)nc2n1-c1cccc(C(C)(C)O)n1 + CC(C)NCC(C(=O)N1CCN(c2ncnc3c2C(C)CC3O)CC1)c1ccc(Cl)cc1
IC50 [1]: 727 nM | IC50 [2]: 354 nM | IC50 [3]: < 31.6 nM | IC50 [4]: < 31.6 nM | IC50 [5]: < 31.6 nM | viability, T/C [6]: 116% | viability, T/C [7]: 118% | viability, T/C (second compound 0.1 µM, first compound 0.316 µM): 114% | viability, T/C (second compound 0.1 µM, first compound 1 µM): 25.6% | viability, T/C (second compound 0.1 µM, first compound 3.16 µM): 22.1% | viability, T/C (second compound 0.1 µM, first compound 10 µM): 20.3% | viability, T/C [8]: 87.3% | viability, T/C [9]: 80.3% | viability, T/C (second compound 0.316 µM, first compound 0.316 µM): 54% | viability, T/C (second compound 0.316 µM, first compound 1 µM): 17.4% | viability, T/C (second compound 0.316 µM, first compound 3.16 µM): 15.6% | viability, T/C (second compound 0.316 µM, first compound 10 µM): 16.4% | viability, T/C [10]: 26.4% | viability, T/C [11]: 23.8% | viability, T/C (second compound 1 µM, first compound 0.316 µM): 16.5% | viability, T/C (second compound 1 µM, first compound 1 µM): 9.22% | viability, T/C (second compound 1 µM, first compound 3.16 µM): 10.4% | viability, T/C (second compound 1 µM, first compound 10 µM): 10.4% | viability, T/C [12]: 9.36% | viability, T/C [13]: 8.13% | viability, T/C (second compound 3.16 µM, first compound 0.316 µM): 6.23% | viability, T/C (second compound 3.16 µM, first compound 1 µM): 5.35% | viability, T/C (second compound 3.16 µM, first compound 3.16 µM): 7.31% | viability, T/C (second compound 3.16 µM, first compound 10 µM): 8.03% | viability, T/C [14]: 5.29% | viability, T/C [15]: 4.04% | viability, T/C (second compound 10 µM, first compound 0.316 µM): 3.45% | viability, T/C (second compound 10 µM, first compound 1 µM): 4.09% | viability, T/C (second compound 10 µM, first compound 3.16 µM): 4.97% | viability, T/C (second compound 10 µM, first compound 10 µM): 4.41%

CC(C)n1nc(-c2ccc3oc(N)nc3c2)c2c(N)ncnc21 + CC(C)NCC(C(=O)N1CCN(c2ncnc3c2C(C)CC3O)CC1)c1ccc(Cl)cc1
IC50 [1]: 3.65 nM | IC50 [2]: 0.877 nM | IC50 [3]: < 0.316 nM | IC50 [4]: < 0.316 nM | IC50 [5]: < 0.316 nM | viability, T/C (second compound 0.1 µM, first compound 0.000316 µM): 116% | viability, T/C (second compound 0.1 µM, first compound 0.001 µM): 101% | viability, T/C (second compound 0.1 µM, first compound 0.00316 µM): 56.6% | viability, T/C (second compound 0.1 µM, first compound 0.01 µM): 11.2% | viability, T/C [6]: 2.88% | viability, T/C [7]: 2% | viability, T/C (second compound 0.316 µM, first compound 0.000316 µM): 69.3% | viability, T/C (second compound 0.316 µM, first compound 0.001 µM): 47.4% | viability, T/C (second compound 0.316 µM, first compound 0.00316 µM): 16.7% | viability, T/C (second compound 0.316 µM, first compound 0.01 µM): 3.76% | viability, T/C [8]: 1.96% | viability, T/C [9]: 1.7% | viability, T/C (second compound 1 µM, first compound 0.000316 µM): 20% | viability, T/C (second compound 1 µM, first compound 0.001 µM): 9.02% | viability, T/C (second compound 1 µM, first compound 0.00316 µM): 5.13% | viability, T/C (second compound 1 µM, first compound 0.01 µM): 2.23% | viability, T/C [10]: 1.26% | viability, T/C [11]: 1.29% | viability, T/C (second compound 3.16 µM, first compound 0.000316 µM): 8.5% | viability, T/C (second compound 3.16 µM, first compound 0.001 µM): 4.98% | viability, T/C (second compound 3.16 µM, first compound 0.00316 µM): 2.85% | viability, T/C (second compound 3.16 µM, first compound 0.01 µM): 1.62% | viability, T/C [12]: 1.09% | viability, T/C [13]: 0.93% | viability, T/C (second compound 10 µM, first compound 0.000316 µM): 5.26% | viability, T/C (second compound 10 µM, first compound 0.001 µM): 3.35% | viability, T/C (second compound 10 µM, first compound 0.00316 µM): 2.04% | viability, T/C (second compound 10 µM, first compound 0.01 µM): 1.47% | viability, T/C [14]: 0.84% | viability, T/C [15]: 1%

Cn1cnc2c(F)c(Nc3ccc(Br)cc3Cl)c(C(=O)NOCCO)cc21 + CC(C)NCC(C(=O)N1CCN(c2ncnc3c2C(C)CC3O)CC1)c1ccc(Cl)cc1
IC50 [1]: 540 nM | IC50 [2]: 188 nM | IC50 [3]: < 9.49 nM | IC50 [4]: < 9.49 nM | IC50 [5]: < 9.49 nM | viability, T/C (second compound 0.1 µM, first compound 0.00949 µM): 122% | viability, T/C (second compound 0.1 µM, first compound 0.03 µM): 125% | viability, T/C (second compound 0.1 µM, first compound 0.0949 µM): 107% | viability, T/C (second compound 0.1 µM, first compound 0.3 µM): 75.1% | viability, T/C (second compound 0.1 µM, first compound 0.949 µM): 26.3% | viability, T/C (second compound 0.1 µM, first compound 3 µM): 8.66% | viability, T/C (second compound 0.316 µM, first compound 0.00949 µM): 72.7% | viability, T/C (second compound 0.316 µM, first compound 0.03 µM): 69.6% | viability, T/C (second compound 0.316 µM, first compound 0.0949 µM): 62.4% | viability, T/C (second compound 0.316 µM, first compound 0.3 µM): 41.9% | viability, T/C (second compound 0.316 µM, first compound 0.949 µM): 14.2% | viability, T/C (second compound 0.316 µM, first compound 3 µM): 4.26% | viability, T/C (second compound 1 µM, first compound 0.00949 µM): 24.5% | viability, T/C (second compound 1 µM, first compound 0.03 µM): 26.6% | viability, T/C (second compound 1 µM, first compound 0.0949 µM): 21.2% | viability, T/C (second compound 1 µM, first compound 0.3 µM): 13.3% | viability, T/C (second compound 1 µM, first compound 0.949 µM): 4.61% | viability, T/C (second compound 1 µM, first compound 3 µM): 1.63% | viability, T/C (second compound 3.16 µM, first compound 0.00949 µM): 8.87% | viability, T/C (second compound 3.16 µM, first compound 0.03 µM): 7.75% | viability, T/C (second compound 3.16 µM, first compound 0.0949 µM): 5.99% | viability, T/C (second compound 3.16 µM, first compound 0.3 µM): 5.01% | viability, T/C (second compound 3.16 µM, first compound 0.949 µM): 1.73% | viability, T/C (second compound 3.16 µM, first compound 3 µM): 0.77% | viability, T/C (second compound 10 µM, first compound 0.00949 µM): 5.26% | viability, T/C (second compound 10 µM, first compound 0.03 µM): 3.72% | viability, T/C (second compound 10 µM, first compound 0.0949 µM): 3.22% | viability, T/C (second compound 10 µM, first compound 0.3 µM): 1.9% | viability, T/C (second compound 10 µM, first compound 0.949 µM): 1.16% | viability, T/C (second compound 10 µM, first compound 3 µM): 0.44%
